Drawing on patent US20230074558A1, “DIMERIC COMPOUNDS AS STING AGONISTS” (Mersana Therapeutics, Inc., priority 2019, published 2023), this text covers EC50 for 3 compounds.

In test [1] the target is T1, human STING (homozygous HAQ allele) (Homo sapiens, UniProt Q86WV6, G230A/H232R/R293Q/R71H).
T1 construct: THP1-Dual™ Human Monocytes cells with the homozygous HAQ allele, known to be a natural variant allele of STING; host or cells: THP1-Dual human monocytes
The test is described as follows: Activation of human STING signaling in THP1-Dual Human Monocytes cells, IRF3 luciferase reporter induction. It counts as cell-based. To be noted: 24 hours incubation. How it is done: THP1-Dual™ Human Monocytes cells with the homozygous HAQ allele, known to be a natural variant allele of STING occurring in ˜20% of the human population (Invivogen) have been engineered with two independent gene reporter systems: a secreted embryonic alkaline phosphatase (SEAP) reporter gene for NFkB activity, and secreted luciferase reporter for […] (IRF3) activity were used. 4×10^5 THP1-Dual™ cells were incubated with test Compounds in a 5-fold titration steps from 1 to 0.0128 μM in RPMI media with 10% FBS, for 24 hours at 37° C. with 5% CO2. Cell culture supernatants (20 μl) from each incubated sample was added to resuspended QUANTI-Blue™ Solution (Invivogen, 180 μl) in each well of a flat-bottom 96-well plate, then incubated for 2 h. NFkB levels were evaluated using a spectrophotometer at 620-655 nm.
To evaluate IRF3 reporter levels, cell culture supernatant (20 μl) from each incubated sample was added to QUANTI-Luc™ assay solution (Invivogen, 50 μl), and the luminescence was measured with a SpectraMax M3 spectrophotometer (Molecular Devices).
The EC50 value was determined from the dose response curve based on reference Compounds. Table A provides the results for IRF3 reporter induction THP1-Dual™ Human Monocytes cells and Table B provides the results for IRF3 reporter induction in THP1-Dual™ KI-hSTING-R232 Cells (“A” means <1 μM; “B” means ≥1 μM and <10 μM; “C” means ≥10 μM).
For orientation: A reporter such as luciferase makes a cellular process visible.

Another test concerns the target T2, human STING (Homo sapiens, UniProt Q86WV6, G230A/H232R/R293Q/R71H).
T2 construct: host or cells: THP1-Dual cells, digitonin-permeabilized
In words: Activation of human STING signaling in permeabilized THP1-Dual cells, IRF3 induction. The format is cell-based. Conditions: digitonin-permeabilized THP1-Dual cells, 30 minutes on ice then 24 h. As for the experimental part: 4×10^5 THP1-Dual™ cells (NF-κB-SEAP and IRF-Lucia luciferase Reporter Monocytes, Invivogen) were incubated with test Compounds in a 5-fold titration steps from […] in permeabilized buffer (50 mM HEPES pH 7.0, 100 mM KCl, 3 mM MgCl2, 85 mM sucrose, 0.2% BSA, 1 mM ATP, 0.1 mM GTP, 0.1 mM TTP, […]) for 30 minutes on ice. Cells were then washed and incubated in a fresh RPMI media with 10% FBS at 37° C. with 5% CO2 for 24 h. Cell culture supernatants from each sample were collected and NFkB and IRF3 were evaluated as above. Table B provides the results for IRF3 induction (“A” means <1 μM; “B” means ≥1 μM and <10 μM; “C” means ≥10 μM).

T2 sequence (Q86WV6 whole entry R71H/G230A/H232R/R293Q): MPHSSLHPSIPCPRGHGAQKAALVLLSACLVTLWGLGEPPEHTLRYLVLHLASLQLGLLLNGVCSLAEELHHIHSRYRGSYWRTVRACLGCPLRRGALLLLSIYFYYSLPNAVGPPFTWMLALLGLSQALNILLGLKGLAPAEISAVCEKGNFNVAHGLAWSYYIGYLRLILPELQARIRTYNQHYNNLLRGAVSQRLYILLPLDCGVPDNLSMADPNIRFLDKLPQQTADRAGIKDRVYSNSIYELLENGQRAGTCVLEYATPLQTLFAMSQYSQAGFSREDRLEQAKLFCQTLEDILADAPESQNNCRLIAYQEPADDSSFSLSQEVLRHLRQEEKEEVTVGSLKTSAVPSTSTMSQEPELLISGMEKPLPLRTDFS
T1 sequence (Q86WV6 whole entry R71H/G230A/H232R/R293Q): as above

On to `O=C(O)CCC(=O)c1nc2ccc(-c3ccccc3-c3ccc4nc(C(=O)CCC(=O)O)sc4c3)cc2s1` [Compound 9, 4,4′-(1,2-phenylenebis(benzo[d]thiazole-6,2-diyl))bis(4-oxobutanoic acid)], for which the concentration for a half-maximal effect (EC50) (in test [1]; on human STING) was at least 10 µM in each case.
Consider `O=C(O)CCC(=O)c1cc2ccc(NC(=O)Nc3ccc4cc(C(=O)CCC(=O)O)sc4c3)cc2s1` [Compound 25, 4,4′-((carbonylbis(azanediyl))bis(benzo[b]thiophene-6,2-diyl))bis(4-oxobutanoic acid)], for which the concentration for a half-maximal effect (EC50) (in test [1]; at human STING) was at least 10 µM each time.
Turning to `O=C(O)CCC(=O)c1cc2ccc(/C=C\c3ccc4cc(C(=O)CCC(=O)O)sc4c3)cc2s1` [Compound 36, (Z)-4,4′-(ethene-1,2-diylbis(benzo[b]thiophene-6,2-diyl))bis(4-oxobutanoic acid)], the EC50 (in test [1]; on human STING) was at least 10 µM each time.

The term EC50 denotes the concentration needed to bring the measured effect to its halfway point.
